Results as given in publication PMC10924921, “Mi-2β promotes immune evasion in melanoma by activating EZH2 methylation” (Nature Communications, 2024).

Tests used:
Test in all cases: biochemical
Design in all cases: KINOMEscan active-site competition binding panel (468 kinase assays), per cent of control at 1000 nM
Conditions in all cases: KINOMEscan per cent of control (binding competition); read-out: Percent Control
[1] = target: T1, ABL1(F317I)-nonphosphorylated (Homo sapiens, UniProt P00519, F317I)
T1 construct: nonphosphorylated
Text: (§1) Figure S7 / Percent Control

BLK = BLK (Homo sapiens, UniProt P51451)
Text: as §1

BTK = BTK (Homo sapiens, UniProt Q06187)
Text: as §1

CDC2L2 = target: T2, CDC2L2 (Homo sapiens, UniProt Q9UQ88)
T2 construct: gene CDK11A
Text: as §1

CDC2L5 = target: T3, CDC2L5 (Homo sapiens, UniProt Q14004)
T3 construct: gene CDK13
Text: as §1

DAPK1 = DAPK1 (Homo sapiens, UniProt P53355)
Text: as §1

EPHA7 = EPHA7 (Homo sapiens, UniProt Q15375)
Text: as §1

FLT1 = FLT1 (Homo sapiens, UniProt P17948)
Text: as §1

HIPK1 = HIPK1 (Homo sapiens, UniProt Q86Z02)
Text: as §1

IRAK4 = IRAK4 (Homo sapiens, UniProt Q9NWZ3)
Text: as §1

LIMK2 = LIMK2 (Homo sapiens, UniProt P53671)
Text: as §1

MAP4K3 = MAP4K3 (Homo sapiens, UniProt Q8IVH8)
Text: as §1

MARK2 = MARK2 (Homo sapiens, UniProt Q7KZI7)
Text: as §1

MTOR = MTOR (Homo sapiens, UniProt P42345)
Text: as §1

MYLK = MYLK (Homo sapiens, UniProt Q15746)
Text: as §1

PAK3 = PAK3 (Homo sapiens, UniProt O75914)
Text: as §1

PIK3CD = PIK3CD (Homo sapiens, UniProt O00329)
Text: as §1

PLK4 = PLK4 (Homo sapiens, UniProt O00444)
Text: as §1

RAF1 = RAF1 (Homo sapiens, UniProt P04049)
Text: as §1

RIOK3 = RIOK3 (Homo sapiens, UniProt O14730)
Text: as §1

ROS1 = ROS1 (Homo sapiens, UniProt P08922)
Text: as §1

[2] = target: T4, RSK3(Kin.Dom.1-N-terminal) (Homo sapiens, UniProt Q15349)
T4 construct: gene RPS6KA2; Kin.Dom.1-N-terminal
Text: as §1

SRPK3 = SRPK3 (Homo sapiens, UniProt Q9UPE1)
Text: as §1

TAK1 = target: T5, TAK1 (Homo sapiens, UniProt O43318)
T5 construct: gene MAP3K7
Text: as §1

TYRO3 = TYRO3 (Homo sapiens, UniProt Q06418)
Text: as §1

DAPK1, sequence (P53355 whole entry): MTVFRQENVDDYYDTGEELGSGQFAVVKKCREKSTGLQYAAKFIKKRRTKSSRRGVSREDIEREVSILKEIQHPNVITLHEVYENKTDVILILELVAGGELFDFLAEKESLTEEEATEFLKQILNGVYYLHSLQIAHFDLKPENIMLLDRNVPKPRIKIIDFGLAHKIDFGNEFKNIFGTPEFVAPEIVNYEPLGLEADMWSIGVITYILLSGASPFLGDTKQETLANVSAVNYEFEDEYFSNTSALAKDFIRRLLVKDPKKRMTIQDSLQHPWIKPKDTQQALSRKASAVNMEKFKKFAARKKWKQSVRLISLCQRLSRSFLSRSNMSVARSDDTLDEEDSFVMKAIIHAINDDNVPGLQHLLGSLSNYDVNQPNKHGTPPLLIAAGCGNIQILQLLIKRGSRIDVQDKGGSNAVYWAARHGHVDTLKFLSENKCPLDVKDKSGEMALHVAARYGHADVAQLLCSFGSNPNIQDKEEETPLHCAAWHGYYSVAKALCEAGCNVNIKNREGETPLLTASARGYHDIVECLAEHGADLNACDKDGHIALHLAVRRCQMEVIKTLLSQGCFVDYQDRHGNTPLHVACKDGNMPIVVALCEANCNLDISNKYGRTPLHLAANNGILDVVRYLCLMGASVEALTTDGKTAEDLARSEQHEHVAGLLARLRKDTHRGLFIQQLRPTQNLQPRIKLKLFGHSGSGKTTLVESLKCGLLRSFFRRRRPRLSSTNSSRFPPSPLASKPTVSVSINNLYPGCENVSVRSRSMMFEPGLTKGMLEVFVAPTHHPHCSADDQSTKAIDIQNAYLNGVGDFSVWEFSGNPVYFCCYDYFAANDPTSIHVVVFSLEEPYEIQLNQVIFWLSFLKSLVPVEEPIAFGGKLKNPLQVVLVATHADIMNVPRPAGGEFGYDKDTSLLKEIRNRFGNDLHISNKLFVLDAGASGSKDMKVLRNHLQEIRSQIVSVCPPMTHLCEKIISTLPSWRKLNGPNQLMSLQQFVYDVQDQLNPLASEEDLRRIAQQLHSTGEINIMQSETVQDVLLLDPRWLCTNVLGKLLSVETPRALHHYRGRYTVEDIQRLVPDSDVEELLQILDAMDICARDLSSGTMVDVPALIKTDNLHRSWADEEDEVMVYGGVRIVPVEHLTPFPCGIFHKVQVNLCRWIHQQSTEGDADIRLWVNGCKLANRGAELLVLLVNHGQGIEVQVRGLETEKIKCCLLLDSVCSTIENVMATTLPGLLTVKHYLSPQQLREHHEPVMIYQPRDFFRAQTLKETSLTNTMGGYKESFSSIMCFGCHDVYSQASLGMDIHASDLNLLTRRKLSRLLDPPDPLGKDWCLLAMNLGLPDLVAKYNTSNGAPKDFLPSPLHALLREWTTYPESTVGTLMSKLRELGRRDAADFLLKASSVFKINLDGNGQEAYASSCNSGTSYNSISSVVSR
IRAK4, sequence (Q9NWZ3 whole entry): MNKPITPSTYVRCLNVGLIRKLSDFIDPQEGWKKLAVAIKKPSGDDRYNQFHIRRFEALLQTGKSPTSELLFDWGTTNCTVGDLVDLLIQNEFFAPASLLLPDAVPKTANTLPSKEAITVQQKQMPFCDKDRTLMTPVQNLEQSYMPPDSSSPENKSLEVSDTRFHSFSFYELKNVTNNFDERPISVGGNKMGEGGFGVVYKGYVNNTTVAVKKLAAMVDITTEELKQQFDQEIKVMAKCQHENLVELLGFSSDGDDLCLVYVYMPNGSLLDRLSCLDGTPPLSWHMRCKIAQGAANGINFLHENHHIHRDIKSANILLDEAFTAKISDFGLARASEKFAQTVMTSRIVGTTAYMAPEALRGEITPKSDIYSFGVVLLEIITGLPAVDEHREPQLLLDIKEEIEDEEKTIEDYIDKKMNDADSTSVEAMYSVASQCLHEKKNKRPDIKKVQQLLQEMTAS
BLK, sequence (P51451 whole entry): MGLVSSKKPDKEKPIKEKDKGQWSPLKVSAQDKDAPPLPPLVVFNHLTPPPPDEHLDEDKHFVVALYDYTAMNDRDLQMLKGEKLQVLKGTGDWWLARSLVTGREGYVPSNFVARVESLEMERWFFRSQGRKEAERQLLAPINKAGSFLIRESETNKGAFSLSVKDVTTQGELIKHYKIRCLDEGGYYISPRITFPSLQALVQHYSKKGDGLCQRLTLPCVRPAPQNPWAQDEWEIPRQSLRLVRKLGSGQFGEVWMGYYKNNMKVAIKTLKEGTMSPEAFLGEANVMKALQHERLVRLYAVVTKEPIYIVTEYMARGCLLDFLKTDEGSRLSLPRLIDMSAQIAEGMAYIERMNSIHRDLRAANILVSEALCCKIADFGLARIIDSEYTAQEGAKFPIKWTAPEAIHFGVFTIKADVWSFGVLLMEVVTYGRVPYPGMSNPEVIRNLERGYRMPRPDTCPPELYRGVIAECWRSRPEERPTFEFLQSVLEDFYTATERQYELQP
HIPK1, sequence (Q86Z02 whole entry): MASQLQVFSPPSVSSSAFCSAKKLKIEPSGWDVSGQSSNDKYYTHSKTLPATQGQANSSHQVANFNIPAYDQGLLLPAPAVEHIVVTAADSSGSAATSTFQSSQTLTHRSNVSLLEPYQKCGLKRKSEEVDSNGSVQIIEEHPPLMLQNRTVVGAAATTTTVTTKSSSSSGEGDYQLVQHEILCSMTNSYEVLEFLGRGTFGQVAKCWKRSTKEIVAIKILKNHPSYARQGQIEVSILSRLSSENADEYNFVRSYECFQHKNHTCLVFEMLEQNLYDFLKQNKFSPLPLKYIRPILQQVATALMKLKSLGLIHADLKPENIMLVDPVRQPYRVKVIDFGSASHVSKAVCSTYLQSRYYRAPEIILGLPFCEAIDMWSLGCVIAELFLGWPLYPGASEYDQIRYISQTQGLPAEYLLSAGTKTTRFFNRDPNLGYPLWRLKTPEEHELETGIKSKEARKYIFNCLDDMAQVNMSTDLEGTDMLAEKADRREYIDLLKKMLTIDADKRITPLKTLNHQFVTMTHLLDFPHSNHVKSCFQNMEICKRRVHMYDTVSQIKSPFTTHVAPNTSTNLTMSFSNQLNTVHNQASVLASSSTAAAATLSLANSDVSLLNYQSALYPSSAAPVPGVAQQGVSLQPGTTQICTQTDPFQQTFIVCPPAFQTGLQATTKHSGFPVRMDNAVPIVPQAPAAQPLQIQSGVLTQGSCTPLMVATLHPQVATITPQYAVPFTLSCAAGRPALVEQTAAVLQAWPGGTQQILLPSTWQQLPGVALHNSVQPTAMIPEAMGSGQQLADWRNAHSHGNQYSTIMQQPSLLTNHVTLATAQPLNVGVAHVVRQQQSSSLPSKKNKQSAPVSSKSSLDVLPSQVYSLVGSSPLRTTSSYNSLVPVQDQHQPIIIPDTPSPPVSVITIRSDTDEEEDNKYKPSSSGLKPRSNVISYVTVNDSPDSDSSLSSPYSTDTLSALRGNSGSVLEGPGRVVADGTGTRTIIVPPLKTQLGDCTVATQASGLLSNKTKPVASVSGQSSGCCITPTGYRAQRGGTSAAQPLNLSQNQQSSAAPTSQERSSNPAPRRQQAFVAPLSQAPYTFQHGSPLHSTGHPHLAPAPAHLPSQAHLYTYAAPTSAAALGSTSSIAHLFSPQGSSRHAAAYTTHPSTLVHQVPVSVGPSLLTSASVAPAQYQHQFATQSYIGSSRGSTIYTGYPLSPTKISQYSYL
RAF1, sequence (P04049 whole entry): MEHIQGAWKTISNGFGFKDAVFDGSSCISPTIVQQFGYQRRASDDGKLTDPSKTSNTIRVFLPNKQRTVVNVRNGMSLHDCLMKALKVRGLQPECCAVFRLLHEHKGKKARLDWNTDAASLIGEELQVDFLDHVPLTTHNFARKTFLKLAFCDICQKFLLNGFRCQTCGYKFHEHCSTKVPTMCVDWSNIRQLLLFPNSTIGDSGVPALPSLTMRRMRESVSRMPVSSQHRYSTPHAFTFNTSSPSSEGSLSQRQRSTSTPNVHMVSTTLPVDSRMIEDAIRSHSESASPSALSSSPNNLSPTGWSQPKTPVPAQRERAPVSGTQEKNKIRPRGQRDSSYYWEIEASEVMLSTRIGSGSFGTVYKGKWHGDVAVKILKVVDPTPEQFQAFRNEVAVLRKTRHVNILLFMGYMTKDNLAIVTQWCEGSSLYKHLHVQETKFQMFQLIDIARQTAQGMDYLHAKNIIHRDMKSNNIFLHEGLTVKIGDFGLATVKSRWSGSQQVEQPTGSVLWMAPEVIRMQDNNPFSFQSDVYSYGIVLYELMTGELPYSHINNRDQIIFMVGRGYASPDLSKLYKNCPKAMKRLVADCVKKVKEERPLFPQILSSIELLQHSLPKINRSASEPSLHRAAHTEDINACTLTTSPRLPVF
RIOK3, sequence (O14730 whole entry): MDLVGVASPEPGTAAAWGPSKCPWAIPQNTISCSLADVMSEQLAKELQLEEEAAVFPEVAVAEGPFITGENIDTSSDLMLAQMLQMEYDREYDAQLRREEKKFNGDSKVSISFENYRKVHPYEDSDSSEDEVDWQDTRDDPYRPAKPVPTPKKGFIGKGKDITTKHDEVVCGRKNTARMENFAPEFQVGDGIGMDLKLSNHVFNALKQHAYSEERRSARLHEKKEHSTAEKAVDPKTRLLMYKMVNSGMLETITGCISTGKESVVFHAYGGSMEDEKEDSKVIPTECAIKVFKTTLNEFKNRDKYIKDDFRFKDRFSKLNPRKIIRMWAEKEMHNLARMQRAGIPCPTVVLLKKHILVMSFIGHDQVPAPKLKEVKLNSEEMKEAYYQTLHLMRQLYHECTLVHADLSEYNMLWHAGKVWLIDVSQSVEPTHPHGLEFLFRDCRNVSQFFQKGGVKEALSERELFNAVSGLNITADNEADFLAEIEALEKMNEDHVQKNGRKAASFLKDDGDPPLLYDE

## Cn1c(=O)[nH]c2ccc(-c3cccc(C(=O)NC4CCn5ccnc5C4)c3)cc21 (stereo not shown) [Z36-MP5]
[1]
  remaining binding at 1 µM: 85%
BLK
  remaining binding at 1 µM: 100%
BTK
  remaining binding at 1 µM: 89%
CDC2L2
  remaining binding at 1 µM: 99%
CDC2L5
  remaining binding at 1 µM: 55%
DAPK1
  remaining binding at 1 µM: 99%
EPHA7
  remaining binding at 1 µM: 93%
FLT1
  remaining binding at 1 µM: 95%
HIPK1
  remaining binding at 1 µM: 100%
IRAK4
  remaining binding at 1 µM: 78%
LIMK2
  remaining binding at 1 µM: 96%
MAP4K3
  remaining binding at 1 µM: 51%
MARK2
  remaining binding at 1 µM: 100%
MTOR
  remaining binding at 1 µM: 87%
MYLK
  remaining binding at 1 µM: 81%
PAK3
  remaining binding at 1 µM: 71%
PIK3CD
  remaining binding at 1 µM: 74%
PLK4
  remaining binding at 1 µM: 31%
RAF1
  remaining binding at 1 µM: 83%
RIOK3
  remaining binding at 1 µM: 100%
ROS1
  remaining binding at 1 µM: 51%
[2]
  remaining binding at 1 µM: 93%
SRPK3
  remaining binding at 1 µM: 51%
TAK1
  remaining binding at 1 µM: 84%
TYRO3
  remaining binding at 1 µM: 100%
